{"source": "patent US20060105329A1", "about": "“Gene panel participating in liver regeneration” (priority 2001, published 2006)", "key": {"[1]": {"system": "liver proliferating cell nucleus antigen (PCNA)", "assay": "PCNA labeling index in liver of partially hepatectomized rats administered L-alanine", "assay_type": "in vivo, rat", "experimental": "(§1) L-alanine is known to have effect of accelerating liver regeneration (Maezono K et al., Hepatology 24(5), 1996, Effect of Alanine on D-Galactosamine-Induced Acute Liver Failure in Rats; Japanese Patent Laid-open Publication No. 5-229940). Therefore, rats were subjected to partial hepatectomy and orally administered with L-alanine at 18 and 21 hours after the hepatectomy, and then gene expressions at 24 hours after the hepatectomy were examined.\n(§2) Five 6 week-old F344 male rats (120 g) were preliminarily fed for 6 days by giving feed CRF-1 (Oriental Yeast) and water and then divided into 2 groups (Group 1 and Group 2) each consisting of rats with the same body weight. At 24 hours before dissection, 70% partial hepatectomy was performed by the method by Higgins-Anderson (Higgins, G M and Anderson, R M, Arch. Pathol. 12, 186-191, 1931). On the day of autopsy, the rats were starved for 6 hours before dissection. At 6 and 3 hours before dissection, 2 g/10 ml/kg of L-alanine was orally administered as an aqueous solution containing 0.3% aqueous carboxymethylcellulose (CMC).\nAfter the rats were killed by bleeding under anesthesia, the dissection was performed. Liver was extracted, weighed, cryopreserved, and then subjected to the mRNA expression measurement by the ATAC-PCR method. Further, liver samples were prepared to measure the liver proliferating cell nucleus antigen (PCNA) levels.\nFurther, the livers of rats administered with L-alanine were stained by using anti-PCNA antibodies (antibodies directed to proliferating cell nuclear antigen (PCNA), a replication factor that accelerates activity of DNA polymerase ä), and the PCNA labeling index was measured by the method of Tanaka et al. (Tanaka et al., Byori to Rinsho, 9 (6): 791-798, 1991).\nDue to the L-alanine administration, the PCNA labeling index in the livers elevated as compared with the livers of the non-administered rats (Table 2). In Table 2, Ala+represents the L-alanine-administered group, and Ala-represents the L-alanine non-administered group. Thus, hepatocytes proliferation accelerating effect due to the L-alanine administration was observed."}, "[2]": {"system": "amino acid transporter system A (ATA2)", "assay": "ATAC-PCR gene expression in liver of partially hepatectomized rats administered L-alanine, gene No. 5", "assay_type": "in vivo, rat", "experimental": "as §1\nas §2, with “At 6 and 3 hours before dissection, 2 g/10 ml/kg of L-alanine was orally administered as an aqueous solution containing 0.3% aqueous carboxymethylcellulose (CMC).” left out\n(§3) Gene expressions in rat liver in each group were measured by ATAC-PCR. […] In ATAC-PCR, among the genes in the gene panel, 117 types of which expression could be measured by ATAC-PCR using the restriction enzyme MboI were measured (those except for Nos. 12, 49, 52, 55, 58, 59, 61, 69, 73, 77, 83, 90, 93, 101, 102, 108, 130, 134, 135 and 136 mentioned in Table 1).\n(§4) Further, the gene expressions in Groups 1 and 2 were measured by ATAC-PCR for the genes of the gene panel and compared. […]"}, "[3]": {"system": "high mobility group protein 2", "assay": "ATAC-PCR gene expression in liver of partially hepatectomized rats administered L-alanine, gene No. 17", "assay_type": "in vivo, rat", "experimental": "as §1\nas §2, with “At 6 and 3 hours before dissection, 2 g/10 ml/kg of L-alanine was orally administered as an aqueous solution containing 0.3% aqueous carboxymethylcellulose (CMC).” left out\nas §3, §4"}, "nuclear RNA helicase": {"system": "nuclear RNA helicase", "assay": "ATAC-PCR gene expression in liver of partially hepatectomized rats administered L-alanine, gene No. 36", "assay_type": "in vivo, rat", "experimental": "as §1\nas §2, with “At 6 and 3 hours before dissection, 2 g/10 ml/kg of L-alanine was orally administered as an aqueous solution containing 0.3% aqueous carboxymethylcellulose (CMC).” left out\nas §3, §4"}, "[4]": {"system": "liver nuclear protein p47", "assay": "ATAC-PCR gene expression in liver of partially hepatectomized rats administered L-alanine, gene No. 46", "assay_type": "in vivo, rat", "experimental": "as §1\nas §2, with “At 6 and 3 hours before dissection, 2 g/10 ml/kg of L-alanine was orally administered as an aqueous solution containing 0.3% aqueous carboxymethylcellulose (CMC).” left out\nas §3, §4"}, "[5]": {"system": "leukemia-associated cytosolic phosphoprotein stathmin", "assay": "ATAC-PCR gene expression in liver of partially hepatectomized rats administered L-alanine, gene No. 67", "assay_type": "in vivo, rat", "experimental": "as §1\nas §2, with “At 6 and 3 hours before dissection, 2 g/10 ml/kg of L-alanine was orally administered as an aqueous solution containing 0.3% aqueous carboxymethylcellulose (CMC).” left out\nas §3, §4"}, "deoxy-UTPase (dUTPase)": {"system": "deoxy-UTPase (dUTPase)", "assay": "ATAC-PCR gene expression in liver of partially hepatectomized rats administered L-alanine, gene No. 68", "assay_type": "in vivo, rat", "experimental": "as §1\nas §2, with “At 6 and 3 hours before dissection, 2 g/10 ml/kg of L-alanine was orally administered as an aqueous solution containing 0.3% aqueous carboxymethylcellulose (CMC).” left out\nas §3, §4"}, "[6]": {"system": "gene No. 117 in the gene panel", "assay": "ATAC-PCR gene expression in liver of partially hepatectomized rats administered L-alanine, gene No. 117", "assay_type": "in vivo, rat", "experimental": "as §1\nas §2, with “At 6 and 3 hours before dissection, 2 g/10 ml/kg of L-alanine was orally administered as an aqueous solution containing 0.3% aqueous carboxymethylcellulose (CMC).” left out\nas §3, §4"}, "[7]": {"system": "rat genes involved in L-alanine metabolism", "assay": "Expression analysis of genes involved in L-alanine metabolism by Taqman PCR (SYBR Green) with L-alanine administration during liver regeneration", "assay_type": "in vivo", "settings": "L-alanine 2 g/10 ml/kg BW orally 18 and 21 hr after 70% partial hepatectomy vs 0.3% CMC control, liver at 24 hr, values only in FIGS. 2 to 4", "experimental": "Expression changes were examined with L-alanine administration during liver regeneration regarding 59 types of rat genes involved in L-alanine metabolism extracted in Example 2.\nFive 6 week-old F344 male rats (120 g) were fed for 6 days by giving feed CRF-1 (Oriental Yeast) and water and then divided into 2 groups (Group 1 and Group 2) each consisting of rats with the same body weight. At 24 hours before dissection, 70% partial hepatectomy (left lobe and intermediate lobe) was performed by the method of Higgins-Anderson (Higgins, G M and Anderson, R M, Arch. Pathol. 12, 186-191, 1931). On the day of autopsy, the rats were starved for 6 hours before the dissection. At 18 and 21 hours after the partial hepatectomy, 2 g/10 ml/kg BW of L-alanine was orally administered as an aqueous solution containing 0.3% carboxymethylcellulose (Group 1), and only 0.3% carboxymethylcellulose was orally administered as a control (Group 2).\nDissection was performed at 24 hours after the partial hepatectomy. After the rats were killed by bleeding under anesthesia, livers were extracted, weighed, cryopreserved and then subjected to the mRNA expression measurement by the Taqman PCR (SYBR Green) method. […]\nAll the Taqman PCR (SYBR Green) reactions were performed in duplicate, and the cycle threshold (CT) was calculated. […]"}, "liver regeneration": {"system": "liver regeneration", "settings": "Maezono K et al., Hepatology 24(5), 1996; JP 5-229940; cited from earlier work"}, "ATA2": {"target": "T1, ATA2 (Rattus norvegicus, UniProt Q9JHE5)", "T1 sequence (Q9JHE5 1-504)": "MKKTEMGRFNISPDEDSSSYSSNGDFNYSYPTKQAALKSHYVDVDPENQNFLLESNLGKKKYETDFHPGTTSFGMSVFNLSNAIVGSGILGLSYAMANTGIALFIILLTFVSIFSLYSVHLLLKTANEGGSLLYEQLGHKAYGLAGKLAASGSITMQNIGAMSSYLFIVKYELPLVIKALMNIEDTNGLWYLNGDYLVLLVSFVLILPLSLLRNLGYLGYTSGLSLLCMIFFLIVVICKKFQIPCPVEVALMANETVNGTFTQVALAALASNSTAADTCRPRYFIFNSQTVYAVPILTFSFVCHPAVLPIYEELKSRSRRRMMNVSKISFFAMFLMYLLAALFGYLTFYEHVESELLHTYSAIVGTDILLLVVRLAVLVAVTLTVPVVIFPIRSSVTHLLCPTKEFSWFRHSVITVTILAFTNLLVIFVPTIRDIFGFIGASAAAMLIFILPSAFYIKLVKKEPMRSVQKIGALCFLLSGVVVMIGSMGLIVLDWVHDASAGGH", "settings": "Ala transport activity of ATA2 inhibited by treatment with MeAIB; Freeman T L et al., Hepatology 1999; cited from earlier work"}, "[8]": {"settings": "individual rats 2-1, 2-2 (Group 2, taken as Ala+), L-alanine 2 g/10 ml/kg orally 18 and 21 hr after 70% partial hepatectomy, liver at 24 hr"}, "[9]": {"settings": "liver 24 hr after hepatectomy with L-alanine, ratio to gene panel expression at 0 hour"}, "[10]": {"settings": "ATAC-PCR, liver 24 hr after hepatectomy, L-alanine-administered vs non-administered group"}}, "note": "Several values for one entry are separate records, joined by “and”; a condition that tells them apart may be missing. Equal entries are not always repeated.", "data": [{"smiles": "C[C@H](N)C(=O)O", "note": "[L-alanine]", "values": [{"measurement": "PCNA labeling index in the livers as compared with non-administered rats", "setting": "[1]; L-alanine orally 18 and 21 hr after partial hepatectomy, liver at 24 hr", "result": "elevated"}, {"measurement": "PCNA Labeling Index (%), Mean", "setting": "[1]; group mean of rats 2-1, 2-2 (taken as Ala+), non-administered group mean 0.6%, liver 24 hr after hepatectomy", "result": 64.7, "unit": "%"}, {"measurement": "PCNA Labeling Index (%)", "setting": "[1]; [8]", "result": "65.5% and 64.0%"}, {"measurement": "PCNA Negative cells", "setting": "[1]; [8]", "result": "247 and 240"}, {"measurement": "PCNA positive cells", "setting": "[1]; [8]", "result": "468 and 426"}, {"measurement": "Ala+, 24 hr/Ala-, 24 hr expression ratio, gene No. 5", "setting": "[2]; 24 h", "result": 4.8}, {"measurement": "Ala+ 24 hr relative expression value based on expression before hepatectomy, gene No. 5", "setting": "[2]; [9]", "result": 4.8}, {"measurement": "Ala+, 24 hr/Ala-, 24 hr expression ratio, gene No. 17", "setting": "[3]; [10]", "result": 5.5}, {"measurement": "Ala+ 24 hr relative expression value based on expression before hepatectomy, gene No. 17", "setting": "[3]; [9]", "result": 228.3}, {"measurement": "Ala+, 24 hr/Ala-, 24 hr expression ratio, gene No. 36", "setting": "nuclear RNA helicase; [10]", "result": 4.6}, {"measurement": "Ala+ 24 hr relative expression value based on expression before hepatectomy, gene No. 36", "setting": "nuclear RNA helicase; [9]", "result": 25.8}, {"measurement": "Ala+, 24 hr/Ala-, 24 hr expression ratio, gene No. 46", "setting": "[4]; [10]", "result": 4.4}, {"measurement": "Ala+ 24 hr relative expression value based on expression before hepatectomy, gene No. 46", "setting": "[4]; [9]", "result": 11.4}, {"measurement": "Ala+, 24 hr/Ala-, 24 hr expression ratio, gene No. 67", "setting": "[5]; [10]", "result": 4.2}, {"measurement": "Ala+ 24 hr relative expression value based on expression before hepatectomy, gene No. 67", "setting": "[5]; [9]", "result": 25.6}, {"measurement": "Ala+, 24 hr/Ala-, 24 hr expression ratio, gene No. 68", "setting": "deoxy-UTPase (dUTPase); [10]", "result": 3.5}, {"measurement": "Ala+ 24 hr relative expression value based on expression before hepatectomy, gene No. 68", "setting": "deoxy-UTPase (dUTPase); [9]", "result": 24.9}, {"measurement": "Ala+, 24 hr/Ala-, 24 hr expression ratio, gene No. 117", "setting": "[6]; [10]", "result": 3.2}, {"measurement": "Ala+ 24 hr relative expression value based on expression before hepatectomy, gene No. 117", "setting": "[6]; [9]", "result": 0.6}, {"measurement": "Expression level of genes involved in L-alanine metabolism (genes of Table 7 and Nos. 139, 140, 151)", "setting": "[7]", "result": "changes in expression level due to the L-alanine administration were observed"}, {"measurement": "effect on liver regeneration", "setting": "liver regeneration", "result": "accelerate liver regeneration"}]}, {"smiles": "CNC(C)(C)C(=O)O", "note": "[MeAIB, alpha-(methylamino)isobutyric acid]", "values": [{"measurement": "uptake of [3H]thymidine into DNA", "setting": "ATA2", "result": "decreased"}]}]}
